Where a name gives a salt, the structure may show the parent alone.
Columns and labels:
BMDMs [1] = assay: Seahorse XF Mito Stress Test (respirometry, OCR); assay type: cell-based, mouse; conditions: BMDMs pre-treated 3 h, LPS 4 h
Experimental: All compounds used DMSO as a vehicle except for 4-hydroxy tamoxifen (EtOH), NAC (PBS), and AOAA for tracing experiments (Media). LPS was used at a concentration of 100 ng/ml for indicated timepoints (2, 3, 4, 6, 8, 24, 48 h). FHIN1 (10 or 20 μM), MMF (50 or 100 μM), DMF (25 μM), AOAA (5 mM), oligomycin (10 μM), CCCP (50 μM) NAC (1 mM), and IMT1 (10 μM) pre-treatments were performed for 3 h prior the addition of LPS. Cells were treated with valinomycin (10 nM) 15 mins before LPS stimulation. Anti-CD210 or IgG control (10 μg/ml) antibodies were added to cells 1 h prior to LPS stimulation. Recombinant mouse IL-10 protein (100 ng/ml) was added to cells at the same time as LPS. Cells were treated with IFN-B1 (220 ng/ml) for 3 h. Cells were treated with C-178 (1 μM) 1 h prior to LPS stimulation or transfection with 2′3′-cGAMP (1.5 μg/ml) for 4 hrs to achieve cGAS-STING activation. Cells were treated with ODN 2088 (1 μM) for 1 hr prior to LPS stimulation or transfection with CPG ODN 1826 (1.5 μg/ml) to achieve TLR9 activation. 3 different timepoints of 4-hydroxy tamoxifen (TAM) (600 nM or 2 μM) or EtOH treatment were performed-these are specified in the individual figure legends. For ‘48 h’ treatments EtOH/TAM was added on day 5 of 6 during the BMDM differentiation protocol. On day 6 they were plated with EtOH/TAM (left overnight) and treated the following day. […]

BMDMs [2] = assay: Western blotting of signalling proteins in BMDMs; assay type: cell-based, mouse; conditions: for IFN-β-induced STAT1 and JAK1 phosphorylation / upstream kinases (AKT, JNK, ERK and p38), total and phospho levels: BMDMs pre-treated with DMSO, FHIN1 or DMF
Experimental: All compounds used DMSO as a vehicle except for 4-hydroxy tamoxifen (EtOH), NAC (PBS), and AOAA for tracing experiments (Media). LPS was used at a concentration of 100 ng/ml for indicated timepoints (2, 3, 4, 6, 8, 24, 48 h). FHIN1 (10 or 20 μM), MMF (50 or 100 μM), DMF (25 μM), AOAA (5 mM), oligomycin (10 μM), CCCP (50 μM) NAC (1 mM), and IMT1 (10 μM) pre-treatments were performed for 3 h prior the addition of LPS. Cells were treated with valinomycin (10 nM) 15 mins before LPS stimulation. Anti-CD210 or IgG control (10 μg/ml) antibodies were added to cells 1 h prior to LPS stimulation. Recombinant mouse IL-10 protein (100 ng/ml) was added to cells at the same time as LPS. Cells were treated with IFN-B1 (220 ng/ml) for 3 h. Cells were treated with C-178 (1 μM) 1 h prior to LPS stimulation or transfection with 2′3′-cGAMP (1.5 μg/ml) for 4 hrs to achieve cGAS-STING activation. Cells were treated with ODN 2088 (1 μM) for 1 hr prior to LPS stimulation or transfection with CPG ODN 1826 (1.5 μg/ml) to achieve TLR9 activation. 3 different timepoints of 4-hydroxy tamoxifen (TAM) (600 nM or 2 μM) or EtOH treatment were performed-these are specified in the individual figure legends. For ‘48 h’ treatments EtOH/TAM was added on day 5 of 6 during the BMDM differentiation protocol. On day 6 they were plated with EtOH/TAM (left overnight) and treated the following day. For ‘72 h’ treatments EtOH/TAM was added on day […] of 6 during the BMDM differentiation protocol. On day 6 they were plated with EtOH/TAM (left overnight) and treated the following day. For ‘96 h’ treatments EtOH/TAM was added on day […] of 6 during the BMDM differentiation protocol. On day 6 they were plated with EtOH/TAM and treated 2 days later.
Supernatant was removed from cells following stimulation and lysates were harvested in 30-50 μl lysis buffer (0.125 M Tris pH 6.8, 10% glycerol, 0.02% SDS, 5% DTT) Lysates were subsequently heated to 95° C. for 5 mins to denature proteins. SDS-PAGE was used to resolve proteins by molecular weight. Samples were boiled at 95° C. for 5 mins prior to loading into a 5% stacking gel. The percentage resolving gel depended on the molecular weight of the given protein. The Bio-Rad gel running system was used to resolve proteins and the Bio-Rad wet transfer system was used for the electrophoretic transfer of proteins onto PVDF membrane. Following transfer, the membrane was incubated in milk powder (5% in TBST) for 1 hr and subsequently incubated in primary antibody rolling overnight at 4° C. Primary antibodies targeting phospho-proteins were diluted in BSA (5% in TBST) as opposed to milk. The membrane was incubated for 1 hr with secondary antibody (diluted in 5% milk powder) at room temperature. Prior to visualisation, the membrane was immersed in WesternBright ECL Spray (Advansta). Protein visualisation took place on a ChemiDoc MPTM Imaging System (Bio-Rad), and both chemiluminescent and white light images were taken. Images were analysed using Image Lab 6.0.1 (Bio-Rad).

Row | Structure (SMILES) | basal respiration, ATP production and maximal respiration as measured by OCR (BMDMs [1]) | LPS-induced p65 phosphorylation (BMDMs [2]; BMDMs pre-treated) | IFN-β-induced STAT1 and JAK1 phosphorylation (BMDMs [2]) | upstream kinases (AKT, JNK, ERK and p38), total and phospho levels (BMDMs [2]) | LPS-induced IL-1β expression (IL-1β levels) (BMDMs [2]; BMDMs pre-treated) | LPS-induced TRAF3 levels (BMDMs [2]; BMDMs pre-treated, LPS 4 h) | TBK1 phosphorylation (BMDMs [2]; BMDMs pre-treated, LPS 4 h) | STAT3 phosphorylation (BMDMs [2]; BMDMs pre-treated, co-treated with recombinant IL-10 100 ng/ml, LPS 4 h)
1 | COC(=O)/C=C/C(=O)OC [DMF, dimethyl fumarate] | no effect | modestly augment | limited | did not observe changes | – | – | – | –
2 | CCOC(=O)[C@@]12CCCC=C1N(Cc1ccc(-c3ccccc3)cc1)C(=O)[C@H]2CC(=O)NC [FHIN1, Fumarate hydratase-IN-1] | impaired | modestly augment | limited | did not observe changes | not increased | not increased | increased | failed to impair

— US20250018019A1, “TREATMENT OF INTERFERON DRIVEN INFLAMMATION” (The Provost, Fellows, Foundation Scholars and the other …, priority 2023, published 2025)
